Test results from patent US8808879B2, “Phototherapy devices and methods comprising substituted carbazole compounds” (Nitto Denko Corporation, priority 2010, dated 2014).

How the values were obtained:
actinic keratoses = assay: Photodynamic treatment of actinic keratoses lesions with topical photosensitiser pro-drug and red OLED; details: 20% topical solution, illuminated with red OLED about 14-18 hours after application
[1] = system: CHO-K1 (Chinese Hamster Ovarian Cancer, ATCC, CRL-2243) cell line; assay: Ex-vivo photodynamic efficacy study of ALA with red OLED light (microscopy, PpIX fluorescence, MTT cell viability)
[2] = system: age-related macular degeneration; assay: Verteporphin photodynamic therapy of age-related macular degeneration with red OLED; type: in vivo, person; details: about 6 mg/m^2 intravenously, retina illuminated with red OLED about 15 minutes after start of infusion
[3] = system: presumed ocular histoplasmosis; set-up: species or system person; details: in vivo, iv
pathological myopia = assay: Verteporphin photodynamic therapy of pathological myopia with red OLED; type: in vivo, person; details: about 6 mg/m^2 intravenously, retina illuminated with red OLED about 15 minutes after start of infusion

Structure (SMILES): Cl.NCC(=O)CCC(=O)O [5-Aminolevulinic acid HCl]
- number or severity of the lesions after the treatment (actinic keratoses): reduced

Structure (SMILES): NCC(=O)CCC(=O)O [ALA, 5-aminolevulinic acid]
- cytotoxicity at 1000 µM ([1]; Cricetulus griseus, CHO-K1, light or radiation study, read-out: cell destroyed compared with reference (MTT cell viability)): ~90%
- cell morphology under optical microscope after light irradiation ([1]; after 25 J/cm^2 red light irradiation, leafy type cells transform to droplet type (FIG. 9)): significant and irreversible cell death
- concentration of ALA required ([1]; at the light dose of 27 J/cm^2): at least 1 mM

Structure (SMILES): C=Cc1c(C)c2cc3nc(cc4[nH]c(cc5nc(cc1[nH]2)C(C)=C5CCC(=O)O)c(CCC(=O)OC)c4C)[C@@]1(C)C3=CC=C(C(=O)OC)[C@H]1C(=O)OC [Verteporphin]
- patient's vision after treatment [2]: stabilized
- patient's vision after treatment [3]: stabilized
- patient's vision after treatment (pathological myopia): stabilized
